According to publication PMC7385619, “A triple action CDK4/6-PI3K-BET inhibitor with augmented cancer cell cytotoxicity” (Cell Discovery, 2020):

Tests used:
Experiment in all cases: KINOMEscan assay (Eurofins DiscoverX)
Format in all cases: binding
kinome (kinase panel) [1] = target: T1, kinome (kinase panel) (Homo sapiens, UniProt P54753); details: EPHB3; 1000 nM; read-out: Percent Control
T1 construct: purchased Eurofins DiscoverX

kinome (kinase panel) [2] = target: T2, kinome (kinase panel) (Homo sapiens, UniProt Q8N568); details: DCAMKL2 (Entrez DCLK2); 1000 nM; read-out: Percent Control
T2 construct: purchased Eurofins DiscoverX

kinome (kinase panel) [3] = target: T3, kinome (kinase panel) (Homo sapiens, UniProt P57059); details: SIK (SIK1); 1000 nM; read-out: Percent Control
T3 construct: purchased Eurofins DiscoverX

kinome (kinase panel) [4] = target: T4, kinome (kinase panel) (Homo sapiens, UniProt P42680); details: TEC; 1000 nM; read-out: Percent Control
T4 construct: purchased Eurofins DiscoverX

kinome (kinase panel) [5] = target: T5, kinome (kinase panel) (Homo sapiens, UniProt O15197); details: EPHB6; 1000 nM; read-out: Percent Control
T5 construct: purchased Eurofins DiscoverX

kinome (kinase panel) [6] = target: T6, kinome (kinase panel) (Homo sapiens, UniProt O00329); details: PIK3CD; 1000 nM; read-out: Percent Control
T6 construct: purchased Eurofins DiscoverX

kinome (kinase panel) [7] = target: T7, kinome (kinase panel) (Homo sapiens, UniProt Q86Y07); details: VRK2; 1000 nM; read-out: Percent Control
T7 construct: purchased Eurofins DiscoverX

kinome (kinase panel) [8] = target: T8, kinome (kinase panel) (Homo sapiens, UniProt Q16512); details: PKN1; 1000 nM; read-out: Percent Control
T8 construct: purchased Eurofins DiscoverX

kinome (kinase panel) [9] = target: T9, kinome (kinase panel) (Homo sapiens, UniProt Q13237); details: PRKG2; 1000 nM; read-out: Percent Control
T9 construct: purchased Eurofins DiscoverX

kinome (kinase panel) [10] = target: T10, kinome (kinase panel) (Homo sapiens, UniProt P29323); details: EPHB2; 1000 nM; read-out: Percent Control
T10 construct: purchased Eurofins DiscoverX

kinome (kinase panel) [11] = target: T11, kinome (kinase panel) (Homo sapiens, UniProt Q96Q40); details: PFTAIRE2 (Entrez CDK15); 1000 nM; read-out: Percent Control
T11 construct: purchased Eurofins DiscoverX

kinome (kinase panel) [12] = target: T12, kinome (kinase panel) (Homo sapiens, UniProt Q8WXR4); details: MYO3B; 1000 nM; read-out: Percent Control
T12 construct: purchased Eurofins DiscoverX

kinome (kinase panel) [13] = target: T13, kinome (kinase panel) (Homo sapiens, UniProt Q9Y6R4); details: MAP3K4; 1000 nM; read-out: Percent Control
T13 construct: purchased Eurofins DiscoverX
T13 sequence (Q9Y6R4 whole entry): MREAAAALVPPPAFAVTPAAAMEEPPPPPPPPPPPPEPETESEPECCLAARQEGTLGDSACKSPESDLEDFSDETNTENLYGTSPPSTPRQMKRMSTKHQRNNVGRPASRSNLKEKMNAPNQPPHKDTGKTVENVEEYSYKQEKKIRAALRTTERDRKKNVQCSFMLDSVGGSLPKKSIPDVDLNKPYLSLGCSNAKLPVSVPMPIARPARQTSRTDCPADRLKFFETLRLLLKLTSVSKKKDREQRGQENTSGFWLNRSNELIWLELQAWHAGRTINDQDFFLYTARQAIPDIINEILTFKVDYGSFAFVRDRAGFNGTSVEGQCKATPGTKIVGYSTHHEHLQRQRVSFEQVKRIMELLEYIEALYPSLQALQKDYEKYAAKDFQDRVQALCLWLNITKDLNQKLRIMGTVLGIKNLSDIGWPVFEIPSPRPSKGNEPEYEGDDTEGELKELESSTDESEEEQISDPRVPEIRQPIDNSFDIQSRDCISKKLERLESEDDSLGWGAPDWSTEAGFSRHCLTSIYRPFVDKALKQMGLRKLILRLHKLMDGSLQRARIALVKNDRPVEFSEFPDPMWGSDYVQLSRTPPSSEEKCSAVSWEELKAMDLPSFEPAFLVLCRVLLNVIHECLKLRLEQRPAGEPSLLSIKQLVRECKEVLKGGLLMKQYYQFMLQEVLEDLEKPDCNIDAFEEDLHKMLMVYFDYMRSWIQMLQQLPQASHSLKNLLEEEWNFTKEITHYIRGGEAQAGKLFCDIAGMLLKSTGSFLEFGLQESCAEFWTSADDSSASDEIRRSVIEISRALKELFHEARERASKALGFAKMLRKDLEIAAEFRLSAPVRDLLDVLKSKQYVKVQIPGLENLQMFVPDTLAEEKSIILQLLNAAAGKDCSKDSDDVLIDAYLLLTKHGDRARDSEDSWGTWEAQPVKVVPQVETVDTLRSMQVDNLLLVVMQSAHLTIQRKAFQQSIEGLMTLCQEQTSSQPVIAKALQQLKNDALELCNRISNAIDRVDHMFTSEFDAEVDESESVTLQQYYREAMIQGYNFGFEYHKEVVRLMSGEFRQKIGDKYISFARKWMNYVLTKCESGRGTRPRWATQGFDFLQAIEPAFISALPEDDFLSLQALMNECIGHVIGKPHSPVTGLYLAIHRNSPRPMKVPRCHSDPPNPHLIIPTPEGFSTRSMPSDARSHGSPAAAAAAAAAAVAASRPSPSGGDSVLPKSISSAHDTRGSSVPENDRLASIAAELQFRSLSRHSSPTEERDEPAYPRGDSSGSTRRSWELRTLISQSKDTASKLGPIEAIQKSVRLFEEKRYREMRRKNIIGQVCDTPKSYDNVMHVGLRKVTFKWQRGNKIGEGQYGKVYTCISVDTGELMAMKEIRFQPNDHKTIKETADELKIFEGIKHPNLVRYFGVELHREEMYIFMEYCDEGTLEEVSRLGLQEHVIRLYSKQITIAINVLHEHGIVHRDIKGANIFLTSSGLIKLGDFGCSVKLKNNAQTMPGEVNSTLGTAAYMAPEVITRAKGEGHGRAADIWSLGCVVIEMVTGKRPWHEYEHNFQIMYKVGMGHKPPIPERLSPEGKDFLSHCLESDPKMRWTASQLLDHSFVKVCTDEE

kinome (kinase panel) [14] = target: T14, kinome (kinase panel) (Homo sapiens, UniProt Q13233); details: MAP3K1; 1000 nM; read-out: Percent Control
T14 construct: purchased Eurofins DiscoverX

kinome (kinase panel) [15] = target: T15, kinome (kinase panel) (Homo sapiens, UniProt P35968); details: VEGFR2 (KDR); 1000 nM; read-out: Percent Control
T15 construct: purchased Eurofins DiscoverX

kinome (kinase panel) [16] = target: T16, kinome (kinase panel) (Homo sapiens, UniProt Q15375); details: EPHA7; 1000 nM; read-out: Percent Control
T16 construct: purchased Eurofins DiscoverX

kinome (kinase panel) [17] = target: T17, kinome (kinase panel) (Homo sapiens, UniProt Q96RR4); details: CAMKK2; 1000 nM; read-out: Percent Control
T17 construct: purchased Eurofins DiscoverX

kinome (kinase panel) [18] = target: T18, kinome (kinase panel) (Homo sapiens, UniProt P07949); details: RET; 1000 nM; read-out: Percent Control
T18 construct: purchased Eurofins DiscoverX

kinome (kinase panel) [19] = target: T19, kinome (kinase panel) (Homo sapiens, UniProt Q9UEE5); details: DRAK1 (Entrez STK17A); 1000 nM; read-out: Percent Control
T19 construct: purchased Eurofins DiscoverX

kinome (kinase panel) [20] = target: T20, kinome (kinase panel) (Homo sapiens, UniProt Q06187); details: BTK; 1000 nM; read-out: Percent Control
T20 construct: purchased Eurofins DiscoverX

kinome (kinase panel) [21] = target: T21, kinome (kinase panel) (Homo sapiens, UniProt Q9NYY3); details: PLK2; 1000 nM; read-out: Percent Control
T21 construct: purchased Eurofins DiscoverX
T21 sequence (Q9NYY3 whole entry): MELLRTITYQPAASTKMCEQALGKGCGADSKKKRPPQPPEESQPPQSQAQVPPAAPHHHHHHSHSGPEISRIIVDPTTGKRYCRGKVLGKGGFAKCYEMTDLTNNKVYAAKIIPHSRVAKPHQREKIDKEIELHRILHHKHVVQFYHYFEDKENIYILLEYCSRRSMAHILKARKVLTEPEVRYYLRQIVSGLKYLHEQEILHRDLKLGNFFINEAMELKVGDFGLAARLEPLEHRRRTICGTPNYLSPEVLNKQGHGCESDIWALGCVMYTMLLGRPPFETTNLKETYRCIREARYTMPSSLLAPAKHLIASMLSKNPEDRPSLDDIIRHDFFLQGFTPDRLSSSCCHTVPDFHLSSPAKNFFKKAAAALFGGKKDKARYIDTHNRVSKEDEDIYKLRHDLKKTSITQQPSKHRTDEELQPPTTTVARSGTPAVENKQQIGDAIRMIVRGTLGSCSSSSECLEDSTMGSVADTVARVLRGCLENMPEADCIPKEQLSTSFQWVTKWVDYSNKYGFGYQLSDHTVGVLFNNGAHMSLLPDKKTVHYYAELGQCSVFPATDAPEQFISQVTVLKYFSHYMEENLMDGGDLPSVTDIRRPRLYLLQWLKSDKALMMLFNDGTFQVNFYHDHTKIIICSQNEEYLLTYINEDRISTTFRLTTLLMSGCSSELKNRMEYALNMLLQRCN

kinome (kinase panel) [22] = target: T22, kinome (kinase panel) (Homo sapiens, UniProt Q12866); details: MERTK; 1000 nM; read-out: Percent Control
T22 construct: purchased Eurofins DiscoverX

kinome (kinase panel) [23] = target: T23, kinome (kinase panel) (Homo sapiens, UniProt P51957); details: NEK4; 1000 nM; read-out: Percent Control
T23 construct: purchased Eurofins DiscoverX

kinome (kinase panel) [24] = target: T24, kinome (kinase panel) (Homo sapiens, UniProt Q9HBH9); details: MKNK2; 1000 nM; read-out: Percent Control
T24 construct: purchased Eurofins DiscoverX

kinome (kinase panel) [25] = target: T25, kinome (kinase panel) (Homo sapiens, UniProt Q8NI60); details: ADCK3 (Entrez CABC1); 1000 nM; read-out: Percent Control
T25 construct: purchased Eurofins DiscoverX

kinome (kinase panel) [26] = target: T26, kinome (kinase panel) (Homo sapiens, UniProt P22455); details: FGFR4; 1000 nM; read-out: Percent Control
T26 construct: purchased Eurofins DiscoverX
T26 sequence (P22455 22-802): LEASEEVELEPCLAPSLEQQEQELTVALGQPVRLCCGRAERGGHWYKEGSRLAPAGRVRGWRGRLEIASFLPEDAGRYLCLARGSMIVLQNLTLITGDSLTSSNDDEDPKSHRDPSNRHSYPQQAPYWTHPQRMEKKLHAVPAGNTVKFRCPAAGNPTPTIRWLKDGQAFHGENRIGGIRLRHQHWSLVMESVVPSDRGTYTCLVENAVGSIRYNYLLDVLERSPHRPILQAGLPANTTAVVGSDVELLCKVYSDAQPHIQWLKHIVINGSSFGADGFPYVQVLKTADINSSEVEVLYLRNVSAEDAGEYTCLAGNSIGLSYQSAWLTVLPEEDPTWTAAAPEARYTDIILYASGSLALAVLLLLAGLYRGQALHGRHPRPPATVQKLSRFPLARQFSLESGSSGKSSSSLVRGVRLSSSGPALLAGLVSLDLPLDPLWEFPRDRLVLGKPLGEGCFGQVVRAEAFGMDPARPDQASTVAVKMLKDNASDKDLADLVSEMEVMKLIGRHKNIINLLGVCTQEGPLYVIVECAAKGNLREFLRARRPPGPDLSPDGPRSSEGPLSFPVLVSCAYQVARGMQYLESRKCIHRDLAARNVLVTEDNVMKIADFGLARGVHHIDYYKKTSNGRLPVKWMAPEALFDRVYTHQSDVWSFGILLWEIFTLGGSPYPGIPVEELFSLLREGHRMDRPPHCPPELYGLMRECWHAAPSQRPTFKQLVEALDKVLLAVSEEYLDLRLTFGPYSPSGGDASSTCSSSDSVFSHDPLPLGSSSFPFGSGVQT

kinome (kinase panel) [27] = target: T27, kinome (kinase panel) (Homo sapiens, UniProt O43318); details: TAK1 (MAP3K7); 1000 nM; read-out: Percent Control
T27 construct: purchased Eurofins DiscoverX

kinome (kinase panel) [28] = target: T28, kinome (kinase panel) (Homo sapiens, UniProt O95835); details: LATS1; 1000 nM; read-out: Percent Control
T28 construct: purchased Eurofins DiscoverX

kinome (kinase panel) [29] = target: T29, kinome (kinase panel) (Homo sapiens, UniProt P00519, E255K); details: read-out: Percent Control
T29 construct: purchased Eurofins DiscoverX

kinome (kinase panel) [30] = target: T30, kinome (kinase panel) (Homo sapiens, UniProt Q07002); details: PCTK3 (Entrez CDK18); 1000 nM; read-out: Percent Control
T30 construct: purchased Eurofins DiscoverX

kinome (kinase panel) [31] = target: T31, kinome (kinase panel) (Homo sapiens, UniProt P07947); details: YES (YES1); 1000 nM; read-out: Percent Control
T31 construct: purchased Eurofins DiscoverX

kinome (kinase panel) [32] = target: T32, kinome (kinase panel) (Homo sapiens, UniProt Q9Y5S2); details: MRCKB (Entrez CDC42BPB); 1000 nM; read-out: Percent Control
T32 construct: purchased Eurofins DiscoverX
T32 sequence (Q9Y5S2 whole entry): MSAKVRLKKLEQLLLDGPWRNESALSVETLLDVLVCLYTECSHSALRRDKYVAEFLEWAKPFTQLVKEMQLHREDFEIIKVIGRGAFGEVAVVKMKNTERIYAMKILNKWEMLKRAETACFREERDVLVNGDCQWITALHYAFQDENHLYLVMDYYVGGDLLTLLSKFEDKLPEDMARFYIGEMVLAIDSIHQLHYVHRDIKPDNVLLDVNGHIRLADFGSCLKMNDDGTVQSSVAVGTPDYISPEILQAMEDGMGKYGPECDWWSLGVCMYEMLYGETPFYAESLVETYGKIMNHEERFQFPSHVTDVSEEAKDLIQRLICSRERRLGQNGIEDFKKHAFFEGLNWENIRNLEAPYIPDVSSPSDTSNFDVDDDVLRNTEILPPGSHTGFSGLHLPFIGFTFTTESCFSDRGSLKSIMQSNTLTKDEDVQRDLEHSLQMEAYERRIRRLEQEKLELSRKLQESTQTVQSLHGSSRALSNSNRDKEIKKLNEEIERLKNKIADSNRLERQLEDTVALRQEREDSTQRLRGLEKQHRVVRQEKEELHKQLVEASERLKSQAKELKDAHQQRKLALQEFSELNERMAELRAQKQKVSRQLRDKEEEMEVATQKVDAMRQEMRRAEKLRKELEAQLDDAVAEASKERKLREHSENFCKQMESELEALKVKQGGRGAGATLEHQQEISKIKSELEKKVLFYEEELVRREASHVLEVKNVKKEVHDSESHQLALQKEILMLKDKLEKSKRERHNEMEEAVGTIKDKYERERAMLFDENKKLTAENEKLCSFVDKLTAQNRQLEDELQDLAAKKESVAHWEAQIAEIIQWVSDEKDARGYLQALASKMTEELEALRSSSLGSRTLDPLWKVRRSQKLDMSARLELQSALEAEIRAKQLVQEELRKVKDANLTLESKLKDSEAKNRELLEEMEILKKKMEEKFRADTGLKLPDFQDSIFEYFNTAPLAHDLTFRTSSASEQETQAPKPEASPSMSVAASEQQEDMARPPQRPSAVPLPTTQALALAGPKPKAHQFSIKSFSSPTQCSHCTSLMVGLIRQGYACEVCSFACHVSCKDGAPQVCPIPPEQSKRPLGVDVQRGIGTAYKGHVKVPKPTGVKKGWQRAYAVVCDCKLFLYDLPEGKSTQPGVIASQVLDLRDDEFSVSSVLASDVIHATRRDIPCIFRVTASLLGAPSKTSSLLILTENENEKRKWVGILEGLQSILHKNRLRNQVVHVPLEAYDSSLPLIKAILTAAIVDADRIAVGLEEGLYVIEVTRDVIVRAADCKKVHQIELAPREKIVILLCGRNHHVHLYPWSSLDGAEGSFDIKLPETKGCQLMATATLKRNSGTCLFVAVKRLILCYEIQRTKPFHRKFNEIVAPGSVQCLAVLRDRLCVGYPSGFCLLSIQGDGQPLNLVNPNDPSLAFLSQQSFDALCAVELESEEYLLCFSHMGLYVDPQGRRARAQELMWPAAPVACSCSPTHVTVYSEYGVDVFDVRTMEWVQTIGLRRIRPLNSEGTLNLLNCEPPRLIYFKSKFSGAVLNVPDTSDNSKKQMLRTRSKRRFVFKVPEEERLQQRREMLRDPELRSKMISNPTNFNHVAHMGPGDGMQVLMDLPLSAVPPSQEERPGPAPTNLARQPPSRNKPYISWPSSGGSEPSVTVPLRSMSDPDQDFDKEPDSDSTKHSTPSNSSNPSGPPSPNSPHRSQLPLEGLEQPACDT

CN(C)C(=O)c1cc2cnc(Nc3ccc(-c4csc5c(=O)cc(N6CCOCC6)oc45)cc3)nc2n1C1CCCC1 [SRX3177]
remaining binding at 1 µM (kinome (kinase panel) [1]): 97%
remaining binding at 1 µM (kinome (kinase panel) [2]): 90%
remaining binding at 1 µM (kinome (kinase panel) [3]): 94%
remaining binding at 1 µM (kinome (kinase panel) [4]): 95%
remaining binding at 1 µM (kinome (kinase panel) [5]): 4.9%
remaining binding at 1 µM (kinome (kinase panel) [6]): 63%
remaining binding at 1 µM (kinome (kinase panel) [7]): 21%
remaining binding at 1 µM (kinome (kinase panel) [8]): 55%
remaining binding at 1 µM (kinome (kinase panel) [9]): 87%
remaining binding at 1 µM (kinome (kinase panel) [10]): 97%
remaining binding at 1 µM (kinome (kinase panel) [11]): 90%
remaining binding at 1 µM (kinome (kinase panel) [12]): 100%
remaining binding at 1 µM (kinome (kinase panel) [13]): 90%
remaining binding at 1 µM (kinome (kinase panel) [14]): 40%
remaining binding at 1 µM (kinome (kinase panel) [15]): 87%
remaining binding at 1 µM (kinome (kinase panel) [16]): 100%
remaining binding at 1 µM (kinome (kinase panel) [17]): 36%
remaining binding at 1 µM (kinome (kinase panel) [18]): 100%
remaining binding at 1 µM (kinome (kinase panel) [19]): 100%
remaining binding at 1 µM (kinome (kinase panel) [20]): 67%
remaining binding at 1 µM (kinome (kinase panel) [21]): 86%
remaining binding at 1 µM (kinome (kinase panel) [22]): 86%
remaining binding at 1 µM (kinome (kinase panel) [23]): 89%
remaining binding at 1 µM (kinome (kinase panel) [24]): 45%
remaining binding at 1 µM (kinome (kinase panel) [25]): 99%
remaining binding at 1 µM (kinome (kinase panel) [26]): 86%
remaining binding at 1 µM (kinome (kinase panel) [27]): 94%
remaining binding at 1 µM (kinome (kinase panel) [28]): 91%
remaining binding at 1 µM (kinome (kinase panel) [29]): 59%
remaining binding at 1 µM (kinome (kinase panel) [30]): 74%
remaining binding at 1 µM (kinome (kinase panel) [31]): 93%
remaining binding at 1 µM (kinome (kinase panel) [32]): 96%
